Assay results taken from patent US7723289B2, “PIF tetrapeptides” (BioIncept, LLC, priority 2003, dated 2010).

How the values were obtained:
[1] = tested on: PBMC; experiment: PIF and analogues on release of cytokines +/- platebound mAbCD3 (Table 4); assay type: cell-based; parameters: IL-1β / TNFa / IL-4 / IL-5 / IL-6 / IL-10 / GM-CSM / IFN-g: unit not given here
[2] = tested on: epithelial cells; experiment: PIF binding to endometrial epithelial cells (MaBCD2 staining); parameters: species or system human; conditions: compared to non-relevant IgG
Description: (§1) In addition, to compare the recovery of β-3 integrin expression with PIF effects described after cultured hEEC in a free-fetal bovine serum (FBS) medium some cells were cultured again in FBS-medium. […] PIF binding to epithelial cells was also examined. Binding was examined using MaBCD2 staining.

[3] = tested on: CD3; experiment: CD3 expression in PBMC (flow cytometry, MAbCD3-PE); assay type: cell-based; conditions: PBMC exposed 3 days, 2-200 nM
Description: Fluorescent PIF peptides bind to immune cell membranes following activation. […] CD69 is expressed during activation of lymphocytes and monocytes, and is a marker of NK cells activation. CD25 is the receptor for IL-2, and a known activation marker as well. […] The expression of CD3 in PBMC was examined following exposure for 3 days to sPIF-1(15) (SEQ ID NO:13) (2-200 nM) using 20 ul MAbCD3-PE (BD).

[4] = tested on: CD2; experiment: CD2 expression in PBMC (flow cytometry, CD2MAb-FITC); assay type: cell-based; conditions: PBMC exposed 3 days
[5] = tested on: β-3 integrin; experiment: β-3 integrin expression by human endometrial epithelial cells (flow cytometry, immunocytochemistry); assay type: cell-based; conditions: hEEC, 2-day culture, 1-500 nM
Description: Human endometrial tissues were digested and stromal and epithelial cells (hEEC) isolated and cultured with a fetal bovine serum (FBS)-enriched medium until confluent layers were obtained. After that the cells were cultured for two more days in a FBS free-medium followed by a further 2-day culture in the same medium containing PIF peptides (1-500 nM).
as §1

[6] = tested on: PBMC; experiment: Time-dependent cytokine secretion by PBMC (Table 3); assay type: cell-based, human; conditions: substance alone
Description: Detailed time dependent and multiple controls were used the secretion of several cytokines by PBMC (IL-2, IL-5, IL-8, GM-CSF, IL-4, IL-10, TNF-α, IFN-γβ, IL-1 and IL-6) were measured. […] By 4 hours, sPIF-1 blocked TNF alpha with recovery by 24 hours. Also INFgamma secretion initiated only after 48 hours. […] Effects on cytokines was already noted at 0.7 nM. Similar effects were found also with other mitogens LPS and PHA when PIF-1 was tested.

[7] = tested on: PBMC; experiment: PIF-1 effects on cytokine expression in patient and control PBMC (Table 7); assay type: cell-based, human; conditions: PHA +, PIF-115 −

For PGSA [sPIF-1(4)], the GM-CSM ([1]; C- (platebound mAbCD3), /1) was 13.7, the IFN-g ([1]; C- (platebound mAbCD3), /1) was 81.3 and the IL-1β ([1]; C- (platebound mAbCD3), /1) was 6.0. The IL-2 ([1]; C- (platebound mAbCD3), /1) was 24.0, the IL-4 ([1]; C- (platebound mAbCD3), /1) was 0 and the IL-5 ([1]; C- (platebound mAbCD3), /1) was 0. For the same substance, the IL-6 ([1]; C- (platebound mAbCD3), /1) was 233.6, the IL-8 ([1]; C- (platebound mAbCD3), /1) was >5000 and the IL-10 ([1]; C- (platebound mAbCD3), /1) was 44.1. The TNFa ([1]; C- (platebound mAbCD3), /1) was 68.3, the GM-CSM ([1]; C- (platebound mAbCD3), /50) was 27.3 and the IFN-g ([1]; C- (platebound mAbCD3), /50) was 145.4. It also gave an IL-1β ([1]; C- (platebound mAbCD3), /50) of 7.3, an IL-2 ([1]; C- (platebound mAbCD3), /50) of 36.2 and an IL-4 ([1]; C- (platebound mAbCD3), /50) of 17.8. For the same substance, the IL-5 ([1]; C- (platebound mAbCD3), /50) was 8.6, the IL-6 ([1]; C- (platebound mAbCD3), /50) was 270.1 and the IL-8 ([1]; C- (platebound mAbCD3), /50) was >5000. It also gave an IL-10 ([1]; C- (platebound mAbCD3), /50) of 82.5, a TNFa ([1]; C- (platebound mAbCD3), /50) of 299.9 and a GM-CSM ([1]; U- (no mAbCD3), /1) of 0. It also gave an IFN-g ([1]; U- (no mAbCD3), /1) of 0, an IL-1β ([1]; U- (no mAbCD3), /1) of 0 and an IL-2 ([1]; U- (no mAbCD3), /1) of 0. For the same substance, the IL-4 ([1]; U- (no mAbCD3), /1) was 0, the IL-5 ([1]; U- (no mAbCD3), /1) was 0 and the IL-6 ([1]; U- (no mAbCD3), /1) was 32.9. For the same substance, the IL-8 ([1]; U- (no mAbCD3), /1) was 809.3, the IL-10 ([1]; U- (no mAbCD3), /1) was 0 and the TNFa ([1]; U- (no mAbCD3), /1) was 0. It also gave a GM-CSM ([1]; U- (no mAbCD3), /50) of 0, an IFN-g ([1]; U- (no mAbCD3), /50) of 0 and an IL-1β ([1]; U- (no mAbCD3), /50) of 0. It also gave an IL-2 ([1]; U- (no mAbCD3), /50) of 0, an IL-4 ([1]; U- (no mAbCD3), /50) of 0 and an IL-5 ([1]; U- (no mAbCD3), /50) of 0. For the same substance, the IL-6 ([1]; U- (no mAbCD3), /50) was 33.4, the IL-8 ([1]; U- (no mAbCD3), /50) was 1079.9 and the IL-10 ([1]; U- (no mAbCD3), /50) was 0. The TNFa ([1]; U- (no mAbCD3), /50) was 0 and the “effect on IL6 and 8” value ([1]; non-stimulated PBMC) was “stimulatory effect”.
In the case of SGIVIYQYMDDRYVGSDL [sPIF-3(18)], the “binding to epithelial cells” value [2] is reported as “mild”.
For SQAVQEHASTNMG [sPIF-2(13)], the “increase in CD3 receptor expression” value [3] was 180-230%, the “increase in CD2 expression” value [4] was 125-160% and the “increase in the expression of β-3-epithelial integrin” value [5] was “up to a four-fold increase”. The “binding to epithelial cells” value [2] was “mild”.
With “phytohemmaglutinin [PHA, reference compound]” the GM-CSF ([6]; 4 h post induction) was 60.4 pg/mL, the IFN-y ([6]; 4 h post induction) was 0 pg/mL and the IL-1β ([6]; 4 h post induction) was 891.2 pg/mL. It also gave an IL-2 ([6]; 4 h post induction) of 28.7 pg/mL, an IL-4 ([6]; 4 h post induction) of 0 pg/mL and an IL-5 ([6]; 4 h post induction) of 0 pg/mL. It also gave an IL-6 ([6]; 4 h post induction) of 7045.0 pg/mL, an IL-8 ([6]; 4 h post induction) of 0 pg/mL and an IL-10 ([6]; 4 h post induction) of 13.3 pg/mL. It also gave a TNF-α ([6]; 4 h post induction) of 18829.1 pg/mL, a GM-CSF ([6]; 24 h post induction) of 60.0 pg/mL and an IFN-y ([6]; 24 h post induction) of 1728.8 pg/mL. The IL-1β ([6]; 24 h post induction) was 5010.5 pg/mL, the IL-2 ([6]; 24 h post induction) was 2800.6 pg/mL and the IL-4 ([6]; 24 h post induction) was 60.0 pg/mL. The IL-5 ([6]; 24 h post induction) was 125.0 pg/mL, the IL-6 ([6]; 24 h post induction) was >5200 pg/mL and the IL-8 ([6]; 24 h post induction) was >6330 pg/mL. The IL-10 ([6]; 24 h post induction) was 1411.5 pg/mL, the TNF-α ([6]; 24 h post induction) was >11390 pg/mL and the GM-CSF ([6]; 48 h post induction) was 0 pg/mL. The IFN-y ([6]; 48 h post induction) was 0 pg/mL, the IL-1β ([6]; 48 h post induction) was 0 pg/mL and the IL-2 ([6]; 48 h post induction) was 0 pg/mL. The IL-4 ([6]; 48 h post induction) was 0 pg/mL, the IL-5 ([6]; 48 h post induction) was 0 pg/mL and the IL-6 ([6]; 48 h post induction) was 0 pg/mL. It also gave an IL-8 ([6]; 48 h post induction) of 5634.0 pg/mL, an IL-10 ([6]; 48 h post induction) of 0 pg/mL and a TNF-α ([6]; 48 h post induction) of 0 pg/mL. It also gave a GM-CSF ([6]; 96 h post induction) of 0 pg/mL, an IFN-y ([6]; 96 h post induction) of 0 pg/mL and an IL-1β ([6]; 96 h post induction) of 0 pg/mL. For the same substance, the IL-2 ([6]; 96 h post induction) was 0 pg/mL, the IL-4 ([6]; 96 h post induction) was 0 pg/mL and the IL-5 ([6]; 96 h post induction) was 0 pg/mL. The IL-6 ([6]; 96 h post induction) was 0 pg/mL, the IL-8 ([6]; 96 h post induction) was >6330 pg/mL and the IL-10 ([6]; 96 h post induction) was 0 pg/mL. For the same substance, the TNF-α ([6]; 96 h post induction) was 0 pg/mL, the IL-10 ([7]; control) was 25.72 % of total PBMC in scatter gate and the TH1/TH2 ([7]; control) was 0.68. For the same substance, the TNFα ([7]; control) was 17.43 % of total PBMC in scatter gate, the IL-10 ([7]; patient) was 24.76 % of total PBMC in scatter gate and the TH1/TH2 ([7]; patient) was 0.57. For the same substance, the TNFα ([7]; patient) was 14.23 % of total PBMC in scatter gate.
